# Laboratory results: patent US20030088888A1, “Method of plant transformation” (priority 2001, published 2003)
# Tested on: gypsophila stem explants
# Test: Transient transformation (GUS expression) of stem explants from GA3-pretreated plants after cocultivation with Agrobacterium tumefaciens EHA105/pKIWI105
# Format: in vivo, Gypsophila paniculata L.
# Description: Unrooted cuttings of gypsophila (Gypsophila paniculata L.) cultivars Arbel, Pestival, Flamingo, Yokinko, New Hope and P2000 were obtained from Danziger “DAN” Flower Farm (Moshav Mishmar Hashiva, Israel). Stem cuttings with six or eight filly mature leaves (not counting the apical leaves which were not fully expanded), harvested from greenhouse-grown plants and stored for up to 2 weeks at 4° C., were used to prepare stem explants (Zuker A, Ahroni A, Shejtman H and Vainstein A (1997). Adventitious shoot regeneration from leaf explants of Gypsophila paniculata L. Plant Cell Reports, 16: 775-778; Ahroni A, Zuker A, Rozen Y, Shejtman H and Vainstein A (1997). An efficient method for adventitious shoot regeneration from stem-segment explants of gwpsophila. Plant Cell Tiss Org Cult 49: 101-106). Twenty days prior to harvesting of cuttings (unless otherwise i5 indicated), mother plants were sprayed once with approximately 4 ml. of 1 mM GA3.
# Cuttings were rinsed with 70% ethanol, then sterilized for 10 min in 1.5% (w/v) sodium hypochlorite and rinsed three times for 10 min each in sterile water. The leaves and shoot apices of the cutting were discarded and the three primary nodes were immersed for 10 min in a bacterial (A. tumefaciens EHA105/pKIWI105) suspension (OD550=1). Inoculated stem explants were then blotted dry and cultured in an upright position on the cocultivation medium for a period of up to 5 days. Following cocultivation, stem explants were histochemically evaluated for transient GUS expression by counting the number of GUS-expressing stem explants, as well as the number of blue spots per explant under a stereo-microscope.
# A histochemical assay of GUS activity was performed according to Stomp (1992). Tissue samples were incubated for a few hours to overnight at 37° C. in a 0.1% (w/v) X-Gluc (5-bromo-4-chloro-3-indolyl β-D-glucuronic acid sodium salt, Biosynth Inc., Staad, Switzerland) solution containing 0.1 M sodium phosphate buffer (pH 7.0), 10 mM EDTA, and 0.1% (w/v) Triton X-100. When necessary, green tissues were bleached, after staining, by immersion in 50% (v/v) EtOH for a few hours, followed by several washes with 70% EtOH. It should be noted that no background GUS activity was detectable in any of the analyzed tissues of control plants.
smiles,measurement,setting,value
C=C1C[C@]23C[C@@]1(O)CC[C@H]2[C@@]12C=C[C@H](O)[C@@](C)(C(=O)O1)[C@H]2[C@@H]3C(=O)O [GA3],increase in frequency of transient transformation events (number of blue spots per explant),"cv. Arbel, explants from 20 day versus 10 day GA3 treated plants",ca. 3 times
same,percentage of GUS-expressing stem explants out of total number of explants inoculated,"cv. Arbel, explants from plants 20 days after GA3 treatment (1 mM spray), 5-day cocultivation with EHA105/pKIWI105",90%
same,percentage of inoculated explants expressing GUS,"cvs. Pestival and Flamingo, GA3-treated plants, cocultivation with EHA105/pKIWI105, dark then light, 5 days",ca. 75%
same,transient transformation (qualitative),"explants from cuttings of plants treated with GA3, versus no transient transformation without GA3",efficient and highly reproducible transient transformation was obtained
